Test results: patent US10857112B2, “Small molecule inhibitors of RNA binding motif (RBM) proteins for the treatment of acute cellular injury” (University of Pittsburgh—Of the Commonwealth System of …, priority 2012, dated 2020)

Key:
[1] = test system: caspase-3; assay: STS-induced caspase-3 (3/7) activity in neurons; type: cell-based, rat
Method: The Caspase3/7-GLO assay uses the exact same reagents as the CellTiter-GLO assay accept for the addition of a luciferin substrate crosslinked to an amino acid caspase cleavage target. Activation of caspases frees luciferin. Luciferin can then be oxidized by luciferase, thereby initiating a light reaction. Luminescence was measured using a luminometer.

[2] = test system: primary rat cortical neurons; assay: Stretch injury (in vitro TBI), LDH release and MTT metabolism; type: cell-based; details: 24 hours after injury
Method: Rat cortical neurons are isolated from E16 embryos, and plated on silicone membranes (with defined elastic properties) held in a custom made stainless steel chamber. DIV 7-9 neurons are subjected to a (computer controlled) preset stretch injury; strain rate 10 s^−1 and 50% membrane deformation. AQ2S or DMSO (vehicle control) was added before (pre-treatment) or after post-treatment) injury, Cell death was assayed ˜24 hours after injury by measuring 1) extracellular LDH in the culture media (released from dying/dead cells), 2) caspase-3/7 activation (a protease involved in execution of cell death), and 3) MTT metabolism (a reagent metabolized by living cells).
LDH is released by dying or injured cells. Primary rat cortical neurons were grown on a custom made stretch-injury device (An in vitro model of TBI). Neurons were pre-treated with 75 μM AQ2S or vehicle only (DMSO control) for 30 minutes, and subjected to a defined stretch injury. 24 hours after injury LDH levels were measured. […] Data was analyzed using a T-test; ***p<0.0001. […]
(3-(4,5-Dimethylthiazol-2-yl)-2,5-diphenyltetrazolium bromide; MTT) is metabolized in living but not dying cells. […] MTT metabolism was measured 24 hours after injury. […] Data was analyzed using ANOVA and Fisher LSD post-hoc test. […]

[3] = test system: primary rat cortical neurons; assay: Glutamate excitotoxic injury, neuron viability; type: cell-based; details: 5 μM glutamate 5 minute; post-injury 125 μM; 24 hours
Method: Drugs (AQ2S and MK801) were dissolved in 100% DMSO (vehicle). Rat cortical neurons were isolated from E17 embryos, and seeded onto 96-well plates at a density of 1.5×10^5/well. At day-in-vitro 8 (D.I.V. 8) culture maintenance media was replaced with treatment media (Modified Eagles Buffered Solution) without or with 5 μM Glutamate. After a 5 minute injury in treatment solution, cells were returned to normal culture maintenance media conditions (Neurobasal/B27 supplement) with either: 1) DMSO, 2) 125 μM AQ2S or 3) MK801; MK801 is an NMDA receptor channel blocker and classic neuroprotectant in this injury paradigm. Neuron viability was measured 24 hours post-injury by incubation with CellTiter Blue reagent (PROMEGA) for 2 hours. CellTiter Blue is metabolized into a fluorescent reagent only in living cells. The level of fluorescence (expressed as relative fluorescent units; RFU) was measured on a plate reader (PROMEGA).
Primary rat cortical neurons were grown onto 96-well plates. Neurons were treated with or without 5 μM glutamate. Cells were returned to regular growth media with DMSO, 125 μM AQ2S, or MK801 and viability measured 24 hours later (expressed as relative fluorescent units; RFU). […] Injury (n=7), Glut+AQ2S (n=7) and Glut+MK-801 (n=6). White bar indicated absence of glutamate injury. […] Data were analyzed by ANOVA (p<0.0001); Fisher LSD post-hoc test. * indicates p<0.05. […]

[4] = test system: primary rat neurons, astrocytes, and cerebral endothelial cells; details: cited from earlier work
[5] = test system: rats; details: intraperitoneal; cited from earlier work

In the case of `O=C1c2ccccc2C(=O)c2cc(S(=O)(=O)O)ccc21` [AQ2S, anthraquinone-2-sulfonic acid], the caspase-3 activity ([1]; 150 nM STS 24 hours, co-treatment 75 μM) is reported as “significantly reduced baseline and injury activity levels”, the “STS-induced caspase-3 activation” value ([1]; 250 nM STS 24 hours) is reported as “completely blocked STS-induced caspase-3 activation” and the “potency among caspase-3, -8 and -9” value ([1]; 75 μM) is reported as “greatest potency against caspase-3”. For the same compound, the “stretch injury induced LDH release (neuronal death)” value ([2]; 75 μM pre-treated 30 minutes) was “significantly reduced neuronal death”, the “MTT metabolism after stretch injury” value ([2]; 30 minutes before or 30 minutes after injury) was “increased by pre- or post-treatment with AQ2S” and the “viability after glutamate injury” value [3] was “significantly protects neurons from glutamate induced cell death”. The “superoxide anion (O2^−) levels” value ([4]; 980 μM, over 60 minute) was “significantly upregulated superoxide anion (O2^−) levels”, the toxicity ([4]; 980 μM) was “lack of toxicity” and the cell viability ([4]; 5000 μM) was 50%. The “Acute LD50” value [5] was 730 mg/kg.
